Laboratory results reported in patent publication US7745463B2, “Alkene piperidine derivatives as antiviral agents” (priority 2006, dated 2010).

Tested on: HIV-1 single-round infectious reporter virus
Assay: Single-round infectious HIV-1 reporter virus (luciferase) infection of HeLa CD4 cells
Format: cell-based
Conditions: Human immunodeficiency virus 1, HeLa, 72 h, read-out: EC50 Group from Table 1
Procedure: • Virus production—Human embryonic Kidney cell line, 293T, was propagated in Dulbecco's Modified Eagle Medium (Invitrogen, Carlsbad, Calif.) containing 10% fetal Bovine serum (FBS, Sigma, St. Louis, Mo.). • Virus infection-Human epithelial cell line, HeLa, expressing the HIV-1 receptor CD4 was propagated in Dulbecco's Modified Eagle Medium (Invitrogen, Carlsbad, Calif.) containing 10% fetal Bovine serum (FBS, Sigma, St. Louis, Mo.) and supplemented with 0.2 mg/mL Geneticin (Invitrogen, Carlsbad, Calif.). • Virus-Single-round infectious reporter virus was produced by co-transfecting human embryonic Kidney 293 cells with an HIV-1 envelope DNA expression vector and a proviral cDNA containing an envelope deletion mutation and the luciferase reporter gene inserted in place of HIV-1 nef sequences (Chen et al, Ref. 41). Transfections were performed using lipofectAMINE PLUS reagent as described by the manufacturer (Invitrogen, Carlsbad, Calif.). Experiment: • HeLa CD4 cells were plated in 96 well plates at a cell density of 1×10^4 cells per well in 100 μl Dulbecco's Modified Eagle Medium containing 10% fetal Bovine serum and incubated overnight. • Compound was added in a 2 μl dimethylsulfoxide solution, so that the final assay concentration would be ≦10 μM. • 100 μl of single-round infectious reporter virus in Dulbecco's Modified Eagle Medium was then added to the plated cells and compound at an approximate multiplicity of infection (MOI) of 0.01, resulting in a final volume of 200 μl per well. • Virally-infected cells were incubated at 37 degrees Celsius, in a CO2 incubator, and harvested 72 h after infection. • Viral infection was monitored by measuring luciferase expression from viral DNA in the infected cells using a luciferase reporter gene assay kit, as described by the manufacturer (Roche Molecular Biochemicals, Indianapolis, Ind.). Infected cell supernatants were removed and 50 μl of lysis buffer was added per well. After 15 minutes, 50 μl of freshly-reconstituted luciferase assay reagent was added per well. Luciferase activity was then quantified by measuring luminescence using a Wallac microbeta scintillation counter. • The percent inhibition for each compound was calculated by quantifying the level of luciferase expression in cells infected in the presence of each compound as a percentage of that observed for cells infected in the absence of compound and subtracting such a determined value from 100. • An EC50 provides a method for comparing the antiviral potency of the compounds of this disclosure. The effective concentration for fifty percent inhibition (EC50) was calculated with the Microsoft Excel Xlfit curve fitting software. For each compound, curves were generated from percent inhibition calculated at 10 different concentrations by using a four paramenter logistic model (model 205). Table 1 is the key for the data in Table 2.

SMILES	EC50
CC(Oc1cccc2ncccc12)C(=O)N1CCC(=C(C#N)c2ccccc2)CC1 (centres unmarked)	< 1000 nM
CC(Oc1cccc2ncccc12)C(=O)N1CCC(=C(C#N)c2ccccc2)CC1C (centres unmarked)	< 1000 nM
CC(Oc1cccc2ncccc12)C(=O)N1CCC(=C(c2ccccc2)c2ccccc2)CC1 (centres unmarked)	> 1000 nM
CC(Oc1cccc2ncccc12)C(=O)N1CCC(=C(c2ccccc2)c2cccnc2)CC1 (centres unmarked)	> 1000 nM
Cc1nnc(C(=C2CCN(C(=O)C(C)Oc3cccc4ncccc34)CC2)c2ccccc2)o1 (centres unmarked)	> 1000 nM
COC(=O)c1ccc(OC(C)C(=O)N2CCC(=C(C#N)c3ccccc3)CC2)c(OC)c1 (centres unmarked)	< 1000 nM
COC(=O)c1ccc(OC(C)C(=O)N2CCC(=C(C#N)c3ccccc3)CC2C)c(OC)c1 (centres unmarked)	< 1000 nM
COC(=O)c1ccc(OC(C)C(=O)N2CCC(=C(c3ccccc3)c3ccccc3)CC2)c(OC)c1 (centres unmarked)	< 1000 nM
COC(=O)c1ccc(OC(C)C(=O)N2CCC(=C(c3ccccc3)c3cccnc3)CC2)c(OC)c1 (centres unmarked)	> 1000 nM
COC(=O)c1ccc(OC(C)C(=O)N2CCC(=C(c3ccccc3)c3nnc(C)o3)CC2)c(OC)c1 (centres unmarked)	< 1000 nM
CC(Oc1cccc2cccnc12)C(=O)N1CCC(=C(C#N)c2ccccc2)CC1 (centres unmarked)	< 1000 nM
